Values after ≈ are worked out from the molar mass of the structure shown.
Legend:
[1] = Solubility in phosphate buffered saline; assay type: physicochemical; conditions: pH 7.4
Procedure: To a sample of the material of known mass were added known volumes of phosphate buffered saline until complete dissolution is observed. Suspensions were centrifuged for 5 min at 10000 rpm. […] Upon complete dissolution, the solution is diluted until the final concentration is 0.5 mg/mL to ensure that the material remains soluble over the entire range of concentrations.

S. aureus ATCC 13709 = experiment: In vitro antibacterial susceptibility (MIC, broth microdilution); assay type: cell-based; conditions: for MIC against S. aureus ATCC 13709, CAMHB: cation-adjusted Mueller-Hinton broth, 37° C., 18 h; for Antibacterial activity compared with oritavancin 5: deduced from the MIC data of Table 2
Procedure: Susceptibility of S. aureus strain ATCC13709 to oritavancin (5) and synthesized compounds was determined following the guidelines set by the Clinical and Laboratory Standards Institute (formerly the National Committee for Clinical Laboratory Standards) (M26-A). Compounds were serially diluted two-fold in either DMSO (Oritavancin 5) or in PBS and transferred to cation-adjusted Mueller Hinton broth (CAMHB; Becton Dickinson). 50 μL of compounds diluted in CAMHB was mixed with 100 μL of bacteria diluted in CAMHB in 96-well microtiter plates. The final number of micro-organisms in the assay was 5×10^5 c.f.u. per mL and the final concentration of DMSO in the assay, if present, was 1.25%. All solutions may contain 0.002% Tween as indicated. Assays were set up in duplicate and incubated at 37° C. for 18 h. The concentration of compound that inhibited visible growth was reported as the minimum inhibitory concentration (MIC).

[2] = 10 mM phosphate buffered saline (0.138 M NaCl, 2.7 mM KCl)

SMILES | Solubility (mg/mL) PBS [1] | MIC against S. aureus ATCC 13709, CAMHB + 0.002% tween (S. aureus ATCC 13709) | MIC against S. aureus ATCC 13709, CAMHB + 50% human serum (S. aureus ATCC 13709) | MIC against S. aureus ATCC 13709, CAMHB + 50% mouse serum (S. aureus ATCC 13709) | MIC against S. aureus ATCC 13709, CAMHB + 50% rat serum (S. aureus ATCC 13709) | MIC against S. aureus ATCC 13709, CAMHB (S. aureus ATCC 13709) | Antibacterial activity compared with oritavancin 5 (S. aureus ATCC 13709) | Solubility (mg/mL) PBS [1, 2]
CC(=O)[O-].CNC(CC(C)C)C(=O)NC1C(=O)NC(CC(N)=O)C(=O)NC2C(=O)NC3C(=O)NC(C(=O)NC(C(=O)SCC[N+](C)(C)C)c4cc(O)cc(O)c4-c4cc3ccc4O)C(OC3CC(C)(N)C(O)C(C)O3)c3ccc(c(Cl)c3)Oc3cc2cc(c3OC2OC(CO)C(O)C(O)C2OC2CC(C)(NCc3ccc(-c4ccc(Cl)cc4)cc3)C(O)C(C)O2)Oc2ccc(cc2Cl)C1O (centres unmarked) [98 (acetate salt)] | 20 mg/mL |  |  |  |  |  |  | 
CC(C)CC(C(=O)NC1C(=O)NC(CC(N)=O)C(=O)NC2C(=O)NC3C(=O)NC(C(=O)NC(C(=O)O)c4cc(O)cc(O)c4-c4cc3ccc4O)C(OC3CC(C)(N)C(O)C(C)O3)c3ccc(c(Cl)c3)Oc3cc2cc(c3OC2OC(CO)C(O)C(O)C2OC2CC(C)(NCc3ccc(-c4ccc(Cl)cc4)cc3)C(O)C(C)O2)Oc2ccc(cc2Cl)C1O)N(C)C(=O)OCOC(=O)CCC(=O)O (centres unmarked) [Compound 7] |  | 0.125 µg/mL | 0.5 µg/mL | 0.5 µg/mL | 0.25 µg/mL | 2 µg/mL (≈ 1.02 µM) | within an order of magnitude of that of oritavancin 5 | <0.5 mg/mL
CC(C)CC(C(=O)NC1C(=O)NC(CC(N)=O)C(=O)NC2C(=O)NC3C(=O)NC(C(=O)NC(C(=O)O)c4cc(O)cc(O)c4-c4cc3ccc4O)C(OC3CC(C)(N)C(O)C(C)O3)c3ccc(c(Cl)c3)Oc3cc2cc(c3OC2OC(CO)C(O)C(O)C2OC2CC(C)(NCc3ccc(-c4ccc(Cl)cc4)cc3)C(O)C(C)O2)Oc2ccc(cc2Cl)C1O)N(C)C(=O)CCC(=O)N(CC(=O)O)CC(=O)O (centres unmarked) [Compound 13] |  | 2 µg/mL | 64 µg/mL | 64 µg/mL | 32 µg/mL | 4 µg/mL (≈ 1.99 µM) | weaker activities | 5.5 mg/mL (≈ 2740 µM)
CC(C)CC(C(=O)NC1C(=O)NC(CC(N)=O)C(=O)NC2C(=O)NC3C(=O)NC(C(=O)NC(C(=O)O)c4cc(O)cc(O)c4-c4cc3ccc4O)C(OC3CC(C)(N)C(O)C(C)O3)c3ccc(c(Cl)c3)Oc3cc2cc(c3OC2OC(CO)C(O)C(O)C2OC2CC(C)(NCc3ccc(-c4ccc(Cl)cc4)cc3)C(O)C(C)O2)Oc2ccc(cc2Cl)C1O)N(C)C(=O)OCOC(=O)CCC(=O)N(CC(=O)O)CC(=O)O (centres unmarked) [Compound 20] |  | 4 µg/mL | 16 µg/mL | 16 µg/mL | 2 µg/mL | 4 µg/mL (≈ 1.92 µM) | weaker activities | 5.5 mg/mL (≈ 2640 µM)
CNC(CC(C)C)C(=O)NC1C(=O)NC(CC(N)=O)C(=O)NC2C(=O)NC3C(=O)NC(C(=O)NC(C(=O)NCCCNCCCCNCCCN)c4cc(O)cc(O)c4-c4cc3ccc4O)C(OC3CC(C)(N)C(O)C(C)O3)c3ccc(c(Cl)c3)Oc3cc2cc(c3OC2OC(CO)C(O)C(O)C2OC2CC(C)(NCc3ccc(-c4ccc(Cl)cc4)cc3)C(O)C(C)O2)Oc2ccc(cc2Cl)C1O (centres unmarked) [Compound 24] |  | 0.5 µg/mL | 1 µg/mL | 0.06 µg/mL | 0.06 µg/mL | 1 µg/mL (≈ 0.506 µM) | within an order of magnitude of that of oritavancin 5 | ≧100 mg/mL
CNC(CC(C)C)C(=O)NC1C(=O)NC(CC(N)=O)C(=O)NC2C(=O)NC3C(=O)NC(C(=O)NC(C(=O)OCC(=O)NCCCNCCCCNCCCN)c4cc(O)cc(O)c4-c4cc3ccc4O)C(OC3CC(C)(N)C(O)C(C)O3)c3ccc(c(Cl)c3)Oc3cc2cc(c3OC2OC(CO)C(O)C(O)C2OC2CC(C)(NCc3ccc(-c4ccc(Cl)cc4)cc3)C(O)C(C)O2)Oc2ccc(cc2Cl)C1O (centres unmarked) [Compound 28] |  | 0.125 µg/mL | 0.25 µg/mL | 0.25 µg/mL | 0.063 µg/mL | 2 µg/mL (≈ 0.983 µM) | within an order of magnitude of that of oritavancin 5 | ≧100 mg/mL
CC(C)CC(C(=O)NC1C(=O)NC(CC(N)=O)C(=O)NC2C(=O)NC3C(=O)NC(C(=O)NC(C(=O)O)c4cc(O)cc(O)c4-c4cc3ccc4O)C(OC3CC(C)(N)C(O)C(C)O3)c3ccc(c(Cl)c3)Oc3cc2cc(c3OC2OC(CO)C(O)C(O)C2OC2CC(C)(NCc3ccc(-c4ccc(Cl)cc4)cc3)C(O)C(C)O2)Oc2ccc(cc2Cl)C1O)N(C)C(=O)CNCCCNCCCCNCCCN (centres unmarked) [Compound 36] |  | 0.06 µg/mL | 0.125 µg/mL | 0.25 µg/mL | 0.125 µg/mL | 1 µg/mL (≈ 0.491 µM) |  | 
CC(C)CC(C(=O)NC1C(=O)NC(CC(N)=O)C(=O)NC2C(=O)NC3C(=O)NC(C(=O)NC(C(=O)O)c4cc(O)cc(O)c4-c4cc3ccc4O)C(OC3CC(C)(N)C(O)C(C)O3)c3ccc(c(Cl)c3)Oc3cc2cc(c3OC2OC(CO)C(O)C(O)C2OC2CC(C)(NCc3ccc(-c4ccc(Cl)cc4)cc3)C(O)C(C)O2)Oc2ccc(cc2Cl)C1O)N(C)C(=O)OCOC(=O)CNCCCNCCCCNCCCN (centres unmarked) [Compound 38] |  | 0.25 µg/mL | 1 µg/mL | 1 µg/mL | 0.5 µg/mL | 2 µg/mL (≈ 0.948 µM) | within an order of magnitude of that of oritavancin 5 | <0.5 mg/mL
CC(C)CC(C(=O)NC1C(=O)NC(CC(N)=O)C(=O)NC2C(=O)NC3C(=O)NC(C(=O)NC(C(=O)O)c4cc(O)cc(O)c4-c4cc3ccc4O)C(OC3CC(C)(N)C(O)C(C)O3)c3ccc(c(Cl)c3)Oc3cc2cc(c3OC2OC(CO)C(O)C(O)C2OC2CC(C)(NCc3ccc(-c4ccc(Cl)cc4)cc3)C(O)C(C)O2)Oc2ccc(cc2Cl)C1O)N(C)C(=O)OCOC(=O)C(N)CCCCN (centres unmarked) [Compound 44] |  | 0.5 µg/mL | 4 µg/mL | 0.25 µg/mL | 0.5 µg/mL | 4 µg/mL (≈ 2 µM) | within an order of magnitude of that of oritavancin 5 | <0.5 mg/mL
CC(C)CC(C(=O)NC1C(=O)NC(CC(N)=O)C(=O)NC2C(=O)NC3C(=O)NC(C(=O)NC(C(=O)O)c4cc(O)cc(O)c4-c4cc3ccc4O)C(OC3CC(C)(NC(=O)OCOC(=O)C(N)CCCCN)C(O)C(C)O3)c3ccc(c(Cl)c3)Oc3cc2cc(c3OC2OC(CO)C(O)C(O)C2OC2CC(C)(NCc3ccc(-c4ccc(Cl)cc4)cc3)C(O)C(C)O2)Oc2ccc(cc2Cl)C1O)N(C)C(=O)OCOC(=O)C(N)CCCCN (centres unmarked) [Compound 46] |  | 0.25 µg/mL | 0.5 µg/mL | 1 µg/mL | 0.25 µg/mL | 1 µg/mL (≈ 0.455 µM) | within an order of magnitude of that of oritavancin 5 | <0.5 mg/mL
CNC(CC(C)C)C(=O)NC1C(=O)NC(CC(N)=O)C(=O)NC2C(=O)NC3C(=O)NC(C(=O)NC(C(=O)SCC[N+](C)(C)C)c4cc(O)cc(O)c4-c4cc3ccc4O)C(OC3CC(C)(N)C(O)C(C)O3)c3ccc(c(Cl)c3)Oc3cc2cc(c3OC2OC(CO)C(O)C(O)C2OC2CC(C)(NCc3ccc(-c4ccc(Cl)cc4)cc3)C(O)C(C)O2)Oc2ccc(cc2Cl)C1O (centres unmarked) [Compound 98] |  | 0.25 µg/mL | 0.25 µg/mL | 2 µg/mL | 0.125 µg/mL | 1 µg/mL | within an order of magnitude of that of oritavancin 5 | 
